Measured values taken from patent publication US20020065259A1, “Glucocorticoid blocking agents for increasing blood-brain barrier permeability” (priority 2000, published 2002).
Like-named read-outs stand apart in the source and are kept apart here.

Columns and labels:
[1] = tested on: BBB permeability; details: adrenalectomized rats with vehicle (placebo) pellets; haloperidol 1 mg/kg s.c. or clozapine 15 mg/kg s.c., 2 h before sacrifice
[2] = tested on: BBB permeability; assay: Example 2: mifepristone pellet in rats, brain haloperidol and clozapine levels and brain dopamine metabolites; type: in vivo
Description: Rats (male Sprague Dawley 175-200 grams) are maintained, 3 rats per cage, under controlled temperature and lighting (12 hours light/12 hours dark) with food and water ad libitum. […] Two hours prior to sacrifice the animals are injected with either haloperidol (1 mg/kg s.c; RBI Natick, Mass.) or an equivalent volume of vehicle (0.3% tartaric acid, pH 5.3) or with either clozapine (15 mg/kg s.c.; RBI, Natick, Mass.) or vehicle (0.9% saline plus 0.8% acetic acid). Animal sacrifice is by decapitation during the first four hours of the light cycle. Blood is collected and brains removed and frozen on dry ice for storage at −80° C. Frozen brains are sliced into 250 μm sections with a cryostat. The medial prefrontal cortex (AP 13.7 to 12.2 mm) is dissected with a scalpel, the striatum (AP 10.7 to 9.7 mm) is removed with stainless steel cannulae from frozen slices and the core and shell of the nucleus accumbens (AP 10.7 to 9.7 mm) is removed. Brain regions are dissected within 24-72 hours of slicing. […] Dopamine metabolites homovanillic acid (HVA) and dihydroxyphenylacetic acid (DOPAC) are measured in the brains of the experimental animals. […] Tissue pellets are dissolved in 1.0 N NaOH for protein determination (BioRad, Richmond, Calif.). Cortical supernatants are filtered through a 0.45 μm filter and 5-80 μl of supernatant is injected directly onto a C18 reverse phase analytical column (5 μm, 250×4.6 mm; Biophase ODS, BAS, West Lafayette, Ind.) protected by a precolumn cartridge (5 μm, 30×4.6 mm, BAS) as described with modification (Lindley et al. Proc. Soc. Exp. Biol. Med. 188:282-286 (1988)). DOPAC and HVA were detected using an electrochemical detector. For cortical regions, the conditioning electrode is set at +0.35 V and the dual analytical electrode is set at +0.02 V and −0.35 V, respectively (ESA, Bedford, Mass.). For other regions a single analytical electrode set at +0.72 V is used (BAS, West Lafayette, Ind.). Brain clozapine levels are analyzed by National Medical Services, Inc. (Willow Grove, PN) while brain and plasma haloperidol and reduced haloperidol and plasma clozapine levels are analyzed by Analytical Psychopharmacology Laboratories (Nathan Kline Institute, Orangeburg, N.Y.), both by gas chromatography.

[3] = tested on: BBB permeability; assay: Example 3: mifepristone pellet in rats, delivery of Amphotericin B to brain; type: in vivo; details: mifepristone 200 mg 10-day sustained release pellet, Amphotericin B 0.1 mg i.v. 2 h before sacrifice
Description: Rats (male Sprague Dawley 175-200 grams) are maintained, 3 rats per cage, under controlled temperature and lighting (12 hours light/12 hours dark) with food and water ad libitum. […] Two hours prior to sacrifice the animals are injected with either Amphotericin B (0.1 mg i.v.; Sigma Chemical Co., (800) 325-3010) or an equivalent volume of vehicle (0.1% DMSO in saline, pH 11). Animal sacrifice is by decapitation during the first four hours of the light cycle. Blood is collected and brains removed and frozen on dry ice for storage at −80° C. Amphotericin B concentration is measured in the brains of the experimental animals. The Amphotericin B concentration is greater in the brains of mifepristone-treated animals than in placebo-treated animals.

[4] = tested on: BBB permeability; assay: Example 4: mifepristone pellet in rats, delivery of ampicillin to brain; type: in vivo; details: mifepristone 200 mg 10-day sustained release pellet, ampicillin 1.5 mg i.v. 2 h before sacrifice
Description: Animal sacrifice is by decapitation during the first four hours of the light cycle. Blood is collected and brains removed and frozen on dry ice for storage at −80° C. Ampicillin concentration is measured in the brains of the experimental animals.

[5] = tested on: BBB permeability; assay: Example 6: mifepristone s.c. injection in rats, delivery of adriamycin to brain; type: in vivo; details: mifepristone 2 mg s.c. 4 h before sacrifice, adriamycin 0.5 mg i.v. 2 h before sacrifice
Description: Animal sacrifice is by decapitation during the first four hours of the light cycle. Blood is collected and brains removed and frozen on dry ice for storage at −80° C. Adriamycin concentration is measured in the brains of the experimental animals.

[6] = tested on: BBB permeability; assay: Example 5: mifepristone pellet in rats, delivery of methotrexate to brain; type: in vivo; details: mifepristone 200 mg 10 day sustained-release pellet, methotrexate 0.5 mg i.v. 2 h before sacrifice
Description: Rats (male Sprague Dawley 175-200 grams) are maintained, 3 rats per cage, under controlled temperature and lighting (12 hours light/12 hours dark) with food and water ad libitum. […] Two hours prior to sacrifice the animals are injected with either methotrexate (0.5 mg i.v; Sigma Chemical Co., (800)325-3010) or an equivalent volume of vehicle (saline, pH 9). Animal sacrifice is by decapitation during the first four hours of the light cycle. Blood is collected and brains removed and frozen on dry ice for storage at −80° C. Methotrexate concentration is measured in the brains of the experimental animals. The methotrexate concentration is greater in the brains of mifepristone-treated animals than in placebo-treated animals.

[7] = rats, mifepristone 200 mg 10-day sustained-release pellet, clozapine 15 mg/kg s.c.
[8] = rats, mifepristone 200 mg 10-day sustained-release pellet, haloperidol 1 mg/kg s.c.

Compound: O=C(CCCN1CCC(O)(c2ccc(Cl)cc2)CC1)c1ccc(F)cc1 [haloperidol]
- measured levels of HVA and DOPAC in the brain [1]: elevated
- measured levels of HVA and DOPAC in the brain ([2]; rats with placebo pellet, haloperidol 1 mg/kg s.c. or clozapine 15 mg/kg s.c., 2 h before sacrifice): elevated

Compound: CC#C[C@]1(O)CC[C@H]2[C@@H]3CCC4=CC(=O)CCC4=C3[C@@H](c3ccc(N(C)C)cc3)C[C@@]21C [mifepristone, (11β,17β)-11-[4-(dimethylamino)phenyl]-17-hydroxy-17-(1-propynyl)estra-4,9-dien-3-one]
- Amphotericin B concentration in the brain, mifepristone-treated vs placebo [3]: greater
- ampicillin concentration in the brain, mifepristone-treated vs placebo [4]: greater
- brain concentration of clozapine, mifepristone-treated vs placebo [2, 7]: greater
- increase in dopamine metabolite levels following clozapine treatment, mifepristone-treated vs placebo [2, 7]: greater
- brain concentration of haloperidol, mifepristone-treated vs placebo [2, 8]: greater
- increase in dopamine metabolite levels following haloperidol treatment, mifepristone-treated vs placebo [2, 8]: greater
- adriamycin concentration in the brain, mifepristone-treated vs placebo [5]: greater
- methotrexate concentration in the brain, mifepristone-treated vs placebo [6]: greater
